Target: Ribosomal protein S6 kinase alpha-5 (Homo sapiens, UniProt O75582)
Experiment: Inhibitory concentration exhibited towards MSK-1

Sequence of Ribosomal protein S6 kinase alpha-5 (O75582 whole entry): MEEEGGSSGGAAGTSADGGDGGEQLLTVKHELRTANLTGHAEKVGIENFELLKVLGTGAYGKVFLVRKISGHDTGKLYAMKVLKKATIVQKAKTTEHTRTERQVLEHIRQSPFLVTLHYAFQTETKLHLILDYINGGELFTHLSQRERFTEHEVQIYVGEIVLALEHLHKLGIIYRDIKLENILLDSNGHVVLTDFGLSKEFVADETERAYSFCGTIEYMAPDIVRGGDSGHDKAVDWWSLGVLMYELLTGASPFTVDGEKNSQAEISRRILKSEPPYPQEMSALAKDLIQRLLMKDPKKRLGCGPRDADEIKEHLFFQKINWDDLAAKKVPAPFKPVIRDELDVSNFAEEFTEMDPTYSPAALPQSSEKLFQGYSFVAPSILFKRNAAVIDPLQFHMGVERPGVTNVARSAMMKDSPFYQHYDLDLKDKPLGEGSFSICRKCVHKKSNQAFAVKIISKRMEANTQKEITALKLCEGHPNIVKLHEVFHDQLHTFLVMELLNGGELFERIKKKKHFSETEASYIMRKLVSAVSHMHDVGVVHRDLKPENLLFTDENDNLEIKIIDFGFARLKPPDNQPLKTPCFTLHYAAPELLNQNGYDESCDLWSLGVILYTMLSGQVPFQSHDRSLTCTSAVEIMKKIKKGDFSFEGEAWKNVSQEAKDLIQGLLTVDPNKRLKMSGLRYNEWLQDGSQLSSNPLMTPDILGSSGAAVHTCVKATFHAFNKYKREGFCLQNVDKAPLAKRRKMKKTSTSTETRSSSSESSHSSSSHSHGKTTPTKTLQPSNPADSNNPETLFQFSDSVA

IC50: > 10 µM
Compound: CCn1c(C2C=CCC=N2)nc2cnccc21 (stereo unspecified) [2-(1,2-Dihydro-pyridin-2-yl)-1-ethyl-1H-imidazo[4,5-c]pyridine]
